The test relates to L1210 leukemia ip in BDF1 mice, survival T/C. The experiment in a line: NCI In Vivo Anticancer Drug Screen. Data for tumor model L1210 Leukemia (intraperitoneal) in B6D2F1 (BDF1) mice. Particulars: endpoint: mean survival time, higher = longer survival. The gist of the method:
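Ratio derived from survival: compound-dosed mice over vehicle-dosed mice, all bearing a transplantable tumor.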

The mark [1] stands for this setting: dose: 50.0 mg/kg/injection, schedule: Q01DX009 (ip), vehicle: saline with Tween-80.
Setting [2] is: dose: 100.0 mg/kg/injection, schedule: Q01DX009 (ip), vehicle: saline with Tween-80.
Where [3] appears, read: dose: 200.0 mg/kg/injection, schedule: Q01DX009 (ip), vehicle: saline with Tween-80.
Where [4] appears, read: dose: 25.0 mg/kg/injection, schedule: Q04DX003 (ip), vehicle: saline.
[5] abbreviates: dose: 50.0 mg/kg/injection, schedule: Q01DX009 (ip), vehicle: saline.
The mark [6] stands for this setting: dose: 50.0 mg/kg/injection, schedule: Q04DX003 (ip), vehicle: saline.
The mark [7] stands for this setting: dose: 100.0 mg/kg/injection, schedule: Q01DX009 (ip), vehicle: saline.
The mark [8] stands for this setting: dose: 100.0 mg/kg/injection, schedule: Q04DX003 (ip), vehicle: saline.
Where [9] appears, read: dose: 200.0 mg/kg/injection, schedule: Q01DX009 (ip), vehicle: saline.
Setting [10] is: dose: 100.0 mg/kg/injection, schedule: Q01DX001 (ip), vehicle: Klucel (hydroxypropylcellulose) (HPC).
The mark [11] stands for this setting: dose: 200.0 mg/kg/injection, schedule: Q01DX001 (ip), vehicle: Klucel (hydroxypropylcellulose) (HPC).
[12] abbreviates: dose: 100.0 mg/kg/injection, schedule: Q04DX003 (ip), vehicle: saline with Tween-80.
Setting [13] is: dose: 200.0 mg/kg/injection, schedule: Q04DX003 (ip), vehicle: saline with Tween-80.
Setting [14] is: dose: 400.0 mg/kg/injection, schedule: Q04DX003 (ip), vehicle: saline with Tween-80.
[15] abbreviates: dose: 100.0 mg/kg/injection, schedule: Q01DX001 (ip), vehicle: saline.
The mark [16] stands for this setting: dose: 400.0 mg/kg/injection, schedule: Q01DX001 (ip), vehicle: saline.
The mark [17] stands for this setting: dose: 100.0 mg/kg/injection, schedule: Q01DX009 (ip), vehicle: Klucel (hydroxypropylcellulose) (HPC).
[18] abbreviates: dose: 100.0 mg/kg/injection, schedule: Q04DX003 (ip), vehicle: Klucel (hydroxypropylcellulose) (HPC).
The mark [19] stands for this setting: dose: 400.0 mg/kg/injection, schedule: Q04DX003 (ip), vehicle: Klucel (hydroxypropylcellulose) (HPC).
The mark [20] stands for this setting: dose: 200.0 mg/kg/injection, schedule: Q01DX001 (ip), vehicle: saline.
The mark [21] stands for this setting: dose: 400.0 mg/kg/injection, schedule: Q01DX001 (ip), vehicle: Klucel (hydroxypropylcellulose) (HPC).
The mark [22] stands for this setting: dose: 200.0 mg/kg/injection, schedule: Q04DX003 (ip), vehicle: saline.
[23] abbreviates: dose: 400.0 mg/kg/injection, schedule: Q01DX009 (ip), vehicle: saline.
Setting [24] is: dose: 400.0 mg/kg/injection, schedule: Q04DX003 (ip), vehicle: saline.

Where “and” joins values, the source holds several entries; their conditions need not be identical. Equal values may be shown once. Toxic doses and inconclusive results are not listed.

`Cc1cccc(C(C)(C)C#N)c1`: the T/C is 92 % of control under setting [1], 101 % of control under setting [2] and 90 % of control under setting [3].
With `CN(C)Cc1c[nH]c2nccnc12`, the T/C runs as follows: (dose: 25.0 mg/kg/injection, schedule: Q01DX009 (ip), vehicle: saline) 102 % of control; under setting [4], 100 % of control; under setting [5], 100 % of control; under setting [6], 105 % of control; under setting [7], 99 % of control and 102 % of control; under setting [8], 100 % of control and 104 % of control. The T/C under setting [9] was 99 % of control.
Regarding `CC(C)(C)C1CC(C(F)(F)F)(C(F)(F)F)OP(=O)(N2CCCCC2)O1` (stereo not drawn), the T/C (dose: 50.0 mg/kg/injection, schedule: Q01DX001 (ip), vehicle: Klucel (hydroxypropylcellulose) (HPC)) is 98 % of control; the T/C under setting [10] is 100 % of control; the T/C under setting [11] was 96 % of control.
Turning to `O=[N+]([O-])CC(OCCCc1ccccc1)C(Cl)(Cl)Cl` (stereo not drawn), the T/C is, setting by setting: under setting [2], 107 % of control; under setting [12], 93 % of control; under setting [3], 109 % of control; under setting [13], 104 % of control; under setting [14], 91 % of control.
In the case of `CCCCCCCC(=O)N(CCN(N=O)C(=O)CCCCCCC)N=O`, the T/C was 95 % of control under setting [15] and 90 % of control under setting [16].
For the molecule `COc1ccc(CO)cc1`, the T/C runs as follows: (dose: 75.0 mg/kg/injection, schedule: Q04DX003 (ip), vehicle: Klucel (hydroxypropylcellulose) (HPC)) 95 % of control; (dose: 150.0 mg/kg/injection, schedule: Q04DX003 (ip), vehicle: Klucel (hydroxypropylcellulose) (HPC)) 101 % of control; (dose: 300.0 mg/kg/injection, schedule: Q04DX003 (ip), vehicle: Klucel (hydroxypropylcellulose) (HPC)) 91 % of control.
`S=C1NCCCS1`: the T/C is 93 % of control (dose: 12.5 mg/kg/injection, schedule: Q01DX009 (ip), vehicle: Klucel (hydroxypropylcellulose) (HPC)); 104 % of control (dose: 25.0 mg/kg/injection, schedule: Q01DX009 (ip), vehicle: Klucel (hydroxypropylcellulose) (HPC)); 98 % of control (dose: 50.0 mg/kg/injection, schedule: Q01DX009 (ip), vehicle: Klucel (hydroxypropylcellulose) (HPC)); 101 % of control under setting [17]; 98 % of control under setting [18]; 95 % of control (dose: 200.0 mg/kg/injection, schedule: Q04DX003 (ip), vehicle: Klucel (hydroxypropylcellulose) (HPC)). For the same molecule, the T/C under setting [19] is 104 % of control.
As for `CN(NC(=O)c1ccccc1)c1ccccc1`, the T/C runs as follows: under setting [12], 96 % of control; under setting [13], 107 % of control; under setting [14], 105 % of control.
As for `OC1CC2CC1C1C3C=CC(C3)C21` (stereo not drawn), the T/C is 98 % of control (dose: 6.25 mg/kg/injection, schedule: Q01DX009 (ip), vehicle: saline with Tween-80); 101 % of control (dose: 12.5 mg/kg/injection, schedule: Q01DX009 (ip), vehicle: saline with Tween-80); 101 % of control (dose: 25.0 mg/kg/injection, schedule: Q01DX009 (ip), vehicle: saline with Tween-80).
For the molecule `COc1ccc(-c2oc3cc(OC)ccc3c(=O)c2O)cc1`, the T/C is, setting by setting: (dose: 50.0 mg/kg/injection, schedule: Q01DX001 (ip), vehicle: saline) 106 % of control; under setting [15], 98 % of control; under setting [20], 104 % of control; under setting [16], 98 % of control.
On to `Cc1c2ccc3ccccc3c2cc2cccc(Cl)c12`, for which the T/C is, setting by setting: under setting [10], 97 % of control; under setting [11], 98 % of control; under setting [21], 101 % of control.
Consider `CCOC(=O)/C(C#N)=C\c1ccc(OCC)c(OCC)c1`, for which the T/C (dose: 100.0 mg/kg/injection, schedule: Q01DX Z (ip), vehicle: methylcellulose (MC)) is 101 % of control and the T/C (dose: 200.0 mg/kg/injection, schedule: Q01DX Z (ip), vehicle: methylcellulose (MC)) is 100 % of control.
Turning to `CC#CC1(O)CCC2C3CC(C)C4CC(=O)CCC4(C)C3CCC21C` (stereo not drawn), the T/C is 108 % of control (dose: 146.0 mg/kg/injection, schedule: Q01DX Z (sc), vehicle: steriod suspending solution); 112 % of control (dose: 222.0 mg/kg/injection, schedule: Q01DX Z (sc), vehicle: steriod suspending solution); 112 % of control (dose: 333.0 mg/kg/injection, schedule: Q01DX Z (sc), vehicle: steriod suspending solution); 106 % of control (dose: 500.0 mg/kg/injection, schedule: Q01DX Z (sc), vehicle: steriod suspending solution).
In the case of `CCN1CC=CCC1`, the T/C was 93 % of control under setting [4]; 100 % of control under setting [5]; 98 % of control under setting [6]; 100 % of control under setting [7]; 103 % of control and 91 % of control under setting [8].
For `CCCC(=O)N1CC(C)OC(C)C1` (stereo not drawn), the T/C runs as follows: under setting [15], 100 % of control; under setting [7], 98 % of control and 104 % of control; (dose: 100.0 mg/kg/injection, schedule: Q04DX002 (ip), vehicle: saline) 109 % of control; under setting [8], 98 % of control; under setting [20], 93 % of control; under setting [9], 100 % of control and 104 % of control. The T/C was 115 % of control (dose: 200.0 mg/kg/injection, schedule: Q04DX002 (ip), vehicle: saline); 104 % of control under setting [22]; 104 % of control under setting [16]; 96 % of control and 107 % of control under setting [23]; 102 % of control (dose: 400.0 mg/kg/injection, schedule: Q04DX002 (ip), vehicle: saline); 100 % of control under setting [24].
Turning to `O=C(Oc1ccc(S(=O)(=O)F)cc1Cl)c1ccccc1Cl`, the T/C was 98 % of control (dose: 100.0 mg/kg/injection, schedule: Q04DX003 (ip), vehicle: carboxymethylcellulose (CMC)); 95 % of control (dose: 200.0 mg/kg/injection, schedule: Q04DX003 (ip), vehicle: carboxymethylcellulose (CMC)); 104 % of control (dose: 400.0 mg/kg/injection, schedule: Q04DX003 (ip), vehicle: carboxymethylcellulose (CMC)).
Turning to `NC1CCC(OC(=O)C23CC4CC(CC(C4)C2)C3)CC1` (stereo not drawn), the T/C (dose: 100.0 mg/kg/injection, schedule: Q01DX001 (ip), vehicle: saline with Tween-80) was 94 % of control.
For the molecule `CCCOC(=O)c1ccccc1`, the T/C reads like this: under setting [10], 100 % of control; under setting [11], 97 % of control; under setting [21], 97 % of control.
On to `COC1OC(C2N(c3ccccc3)CCN2c2ccccc2)=CC(OC(C)=O)C1OC(C)=O` (stereo not drawn), for which the T/C by setting is: under setting [17], 86 % of control; (dose: 400.0 mg/kg/injection, schedule: Q01DX009 (ip), vehicle: Klucel (hydroxypropylcellulose) (HPC)) 90 % of control.
On to `O=C(CNC(=O)Nc1nccs1)NNC(=O)Nc1cccc(C(F)(F)F)c1`, for which the T/C is 94 % of control under setting [1], 105 % of control under setting [2] and 102 % of control under setting [3].
In the case of `CNCCC(CNC1=NCCN1)(c1cccc2ccccc12)C(C)C` (stereo not drawn), under setting [18], the T/C is 94 % of control.
As for `COC1OC(CO)C(O)C(NC(=O)N(C)N=O)C1O` (stereo not drawn), the T/C is 112 % of control (dose: 12.5 mg/kg/injection, schedule: Q01DX009 (ip), vehicle: saline); 106 % of control under setting [4]; 124 % of control (dose: 44.0 mg/kg/injection, schedule: Q01DX009 (ip), vehicle: saline); 181 % of control under setting [5]; 105 % of control under setting [6]; 100 % of control (dose: 66.0 mg/kg/injection, schedule: Q04DX003 (ip), vehicle: saline). Besides, the T/C by setting is: under setting [7], 103 % of control and 218 % of control; under setting [18], 119 % of control; under setting [8], 158 % of control; (dose: 150.0 mg/kg/injection, schedule: Q04DX003 (ip), vehicle: saline) 105 % of control; under setting [22], 166 % of control; under setting [23], 100 % of control. Moreover, the T/C by setting is: under setting [19], 171 % of control; under setting [24], 100 % of control and 214 % of control.

(Values after PubChem BioAssay AID248 (DTP/NCI, 2004).)
